Source: ChEMBL document CHEMBL1134966 (Bioorg Med Chem Lett, 2002)

How the values were obtained:
Assay in all cases: cells
Assay type in all cases: functional, cell-based
Settings in all cases: Homo sapiens
MCF7 = system: MCF7
Description: In vitro cytotoxic effect on MCF-7 cancer cell line

K562 = system: K562
Description: In vitro cytotoxic effect on K562 cancer cell line

CCRF-CEM = system: CCRF-CEM
Description: In vitro cytotoxic effect on CEM cancer cell line

G-361 = system: G-361
Description: In vitro cytotoxic effect on G361 cancer cell line

HOS = system: HOS
Description: In vitro cytotoxic effect on HOS cancer cell line

| IC50 (MCF7) [µM] | IC50 (K562) [µM] | IC50 (CCRF-CEM) [µM] | IC50 (G-361) [µM] | IC50 (HOS) [µM] | Structure (SMILES) |
| --- | --- | --- | --- | --- | --- |
| 12.7 | 57 | 18.2 | 23 |  | CC(C)n1cnc2c(NCc3ccc(O)cc3)nc(NCCCO)nc21 |
| 14.7 | 56 | 17.6 | 26 | 26 | CC(C)n1cnc2c(NCc3cccc(O)c3)nc(NCCCO)nc21 |
| 13.7 | 26 | 9.9 | 19.4 | 11 | CCC(CO)Nc1nc(NCc2cccc(O)c2)c2ncn(C(C)C)c2n1 (stereo unspecified) |
| 12.4 | 24 | 10.7 | 13.3 | 17.2 | CC(C)n1cnc2c(NCc3ccccc3O)nc(NCCCO)nc21 |
| 7.8 | 24 | 11 | 11.1 | 13 | CCC(CO)Nc1nc(NCc2ccc(O)cc2)c2ncn(C(C)C)c2n1 (stereo unspecified) |
| 5.3 | 11.1 | 3 | 6.3 | 6.3 | CC[C@H](CO)Nc1nc(NCc2ccccc2O)c2ncn(C(C)C)c2n1 [OLOMOUCINE II] |
|  | > 167 | 62 | 160 | 149 | Cn1cnc2c(NCc3ccccc3)nc(NCCO)nc21 [OLOMOUCINE] |

The remaining lines, values behind:

| Structure (SMILES) | IC50 (MCF7) [µM] | IC50 (K562) [µM] | IC50 (CCRF-CEM) [µM] | IC50 (G-361) [µM] | IC50 (HOS) [µM] |
| --- | --- | --- | --- | --- | --- |
| CC(C)C(CO)Nc1nc(NCc2ccc(O)cc2)c2ncn(C(C)C)c2n1 (stereo unspecified) | 9.3 | 14.8 | 5.3 | 11.1 | 12 |
| CC(C)C(CO)Nc1nc(NCc2ccccc2O)c2ncn(C(C)C)c2n1 (stereo unspecified) | 5.7 | 10.9 | 4.4 | 7.8 | 8.3 |
| CC(C)C(CO)Nc1nc(NCc2cccc(O)c2)c2ncn(C(C)C)c2n1 (stereo unspecified) | 14.8 | 16.1 | 6.7 |  |  |
| CC(C)n1cnc2c(NCc3ccccc3)nc(NCCCO)nc21 [BOHEMINE] | 28 | 113 | 27 | 45 | 58 |
| CC(C)[C@H](CO)Nc1nc(Nc2cccc(Cl)c2)c2ncn(C(C)C)c2n1 [PURVALANOLA] | 10.7 | 9 | 7.4 | 24 | 22 |
